Source: ChEMBL document CHEMBL1137193, “Discovery of new chemical leads for prostaglandin D2 receptor antagonists” (Bioorg Med Chem Lett, 2004)

Legend:
[1] = molecular target: T1, Prostaglandin D2 receptor (Mus musculus, UniProt P70263); test: Binding affinity for mouse Prostanoid DP receptor
T1 sequence (P70263 whole entry): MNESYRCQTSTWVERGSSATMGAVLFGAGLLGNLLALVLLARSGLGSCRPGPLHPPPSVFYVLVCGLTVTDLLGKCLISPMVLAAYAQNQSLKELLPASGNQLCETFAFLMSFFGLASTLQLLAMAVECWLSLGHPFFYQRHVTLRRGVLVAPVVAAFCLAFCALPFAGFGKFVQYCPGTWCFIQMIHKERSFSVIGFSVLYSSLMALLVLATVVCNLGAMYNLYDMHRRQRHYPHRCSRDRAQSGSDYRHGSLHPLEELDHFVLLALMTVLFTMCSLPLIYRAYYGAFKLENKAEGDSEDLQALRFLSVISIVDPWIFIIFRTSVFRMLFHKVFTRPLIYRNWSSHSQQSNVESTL

[2] = molecular target: T1, Prostaglandin D2 receptor; test: Inhibition of mouse Prostanoid DP receptor
[3] = molecular target: Prostaglandin E2 receptor EP4 subtype (Mus musculus, UniProt P32240); test: Binding affinity for mouse Prostanoid EP4 receptor
[4] = molecular target: T2, Prostaglandin E2 receptor EP1 subtype (Mus musculus, UniProt P35375); test: Binding affinity for mouse Prostanoid EP1 receptor
T2 sequence (P35375 whole entry): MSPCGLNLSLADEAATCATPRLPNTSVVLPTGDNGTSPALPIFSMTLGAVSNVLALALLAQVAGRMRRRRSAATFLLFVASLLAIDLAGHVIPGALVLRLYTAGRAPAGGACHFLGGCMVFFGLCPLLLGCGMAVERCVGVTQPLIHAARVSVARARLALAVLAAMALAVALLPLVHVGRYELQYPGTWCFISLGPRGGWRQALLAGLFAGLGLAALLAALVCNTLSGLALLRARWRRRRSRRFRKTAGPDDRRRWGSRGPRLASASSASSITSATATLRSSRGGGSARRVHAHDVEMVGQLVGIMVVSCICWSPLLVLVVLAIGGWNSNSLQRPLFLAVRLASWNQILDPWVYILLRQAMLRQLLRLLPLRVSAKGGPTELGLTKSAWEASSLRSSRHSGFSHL

[5] = molecular target: T3, Prostaglandin E2 receptor EP3 subtype (Mus musculus, UniProt P30557); test: Binding affinity for mouse Prostanoid EP3 receptor
T3 sequence (P30557 whole entry): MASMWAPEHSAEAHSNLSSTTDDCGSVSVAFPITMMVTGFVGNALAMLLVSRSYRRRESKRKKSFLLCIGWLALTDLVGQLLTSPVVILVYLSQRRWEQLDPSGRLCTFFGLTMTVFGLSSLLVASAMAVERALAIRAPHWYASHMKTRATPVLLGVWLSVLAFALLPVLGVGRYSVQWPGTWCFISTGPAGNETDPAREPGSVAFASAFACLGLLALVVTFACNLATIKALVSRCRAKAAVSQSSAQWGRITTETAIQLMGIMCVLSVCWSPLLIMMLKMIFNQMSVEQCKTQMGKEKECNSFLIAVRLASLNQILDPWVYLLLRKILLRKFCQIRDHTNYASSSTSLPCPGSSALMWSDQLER

[6] = molecular target: Prostaglandin E2 receptor EP2 subtype (Mus musculus, UniProt Q62053); test: Binding affinity for mouse Prostanoid EP2 receptor
Chain of Prostaglandin E2 receptor EP2 subtype (Q62053 whole entry): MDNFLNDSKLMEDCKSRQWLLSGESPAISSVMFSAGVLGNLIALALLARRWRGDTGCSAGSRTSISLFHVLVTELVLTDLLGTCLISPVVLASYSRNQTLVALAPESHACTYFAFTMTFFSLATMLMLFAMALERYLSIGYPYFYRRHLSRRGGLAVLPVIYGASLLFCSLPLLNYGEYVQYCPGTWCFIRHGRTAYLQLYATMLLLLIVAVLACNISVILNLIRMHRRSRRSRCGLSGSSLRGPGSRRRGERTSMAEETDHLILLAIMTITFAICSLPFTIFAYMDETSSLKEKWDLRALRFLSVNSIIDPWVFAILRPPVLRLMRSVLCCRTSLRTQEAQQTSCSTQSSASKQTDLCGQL

Chain of Prostaglandin E2 receptor EP4 subtype (P32240 whole entry): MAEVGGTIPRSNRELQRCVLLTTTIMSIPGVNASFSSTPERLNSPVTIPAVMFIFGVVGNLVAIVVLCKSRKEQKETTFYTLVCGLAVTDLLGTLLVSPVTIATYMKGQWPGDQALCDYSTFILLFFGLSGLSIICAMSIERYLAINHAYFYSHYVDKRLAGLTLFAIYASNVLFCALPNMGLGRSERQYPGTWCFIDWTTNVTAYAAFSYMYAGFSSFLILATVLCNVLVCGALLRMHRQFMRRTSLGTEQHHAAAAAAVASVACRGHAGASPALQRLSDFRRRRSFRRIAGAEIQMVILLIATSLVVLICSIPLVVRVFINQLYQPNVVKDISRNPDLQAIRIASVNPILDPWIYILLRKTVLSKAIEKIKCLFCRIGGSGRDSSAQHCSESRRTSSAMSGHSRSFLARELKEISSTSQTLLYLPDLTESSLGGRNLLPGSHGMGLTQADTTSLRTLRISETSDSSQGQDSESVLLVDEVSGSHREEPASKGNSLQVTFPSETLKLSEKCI

SMILES | Ki [1] [µM] | IC50 [2] [µM] | Ki [3] [µM] | Ki [4] [µM] | Ki [5] [µM] | Ki [6] [µM]
CCCCOc1ccc(C(=O)n2c(C)c(C(=O)O)c3cc(OC)ccc32)cc1 | 0.94 | 4 | > 10 | > 10 | > 10 | > 10
COc1ccc2c(c1)c(CC(=O)O)c(C)n2C(=O)c1ccc(Cl)cc1 [INDOMETHACIN] | > 10 | > 10 | > 10 | > 10 | > 10 | > 10
CCCCOc1ccc(C(=O)n2c(C)c(CCCC(=O)O)c3cc(OC)ccc32)cc1 | 0.19 | 0.91 | 1.5 | > 10 | 2.4 | 2.7
CCCCOc1ccc(C(=O)n2c(CC)c(CC(=O)O)c3cc(OC)ccc32)cc1 | 1.5 |  | > 10 | 3.8 | > 10 | 2.9
CCCCOc1cccc(C(=O)n2c(C)c(CC(=O)O)c3cc(OC)ccc32)c1 | 0.41 | 2.5 | > 10 | > 10 | > 10 | 1.7
CCCCOc1ccc(C(=O)n2c(C)c(CC(=O)O)c3cc(O)ccc32)cc1 | 1.9 | > 10 | > 10 | > 10 | > 10 | 3.3
CCCCOc1ccc(C(=O)n2cc(CC(=O)O)c3cc(OC)ccc32)cc1 | 2.2 |  | > 10 | > 10 | > 10 | 8.9
CCCCOc1ccc(C(=O)n2c(C)c(CC(=O)O)c3ccccc32)cc1 | 0.11 | 3.9 | > 10 | 5.2 | > 10 | 2.1
CCCCOc1ccc(C(=O)n2c(C)c(CC(=O)O)c3cc(C)ccc32)cc1 | 0.15 | 2.9 | 2.2 | 5 | > 10 | 1.7
CCCCOc1ccc(C(=O)n2c(C)c(CC(=O)O)c3cc(OC)ccc32)cc1 | 0.27 | 1.6 | > 10 | > 10 | > 10 | 4.7
CCCCOc1ccccc1C(=O)n1c(C)c(CC(=O)O)c2cc(OC)ccc21 | > 10 |  | > 10 | 6.5 | > 10 | > 10
CCCCOc1ccc(C(=O)n2c(C)c(CCCCC(=O)O)c3cc(OC)ccc32)cc1 | 0.4 | 4.5 | 4.2 | > 10 | > 10 | 5.2
CCCCOc1ccc(C(=O)n2c(C)c(CCC(=O)O)c3cc(OC)ccc32)cc1 | 0.28 | 1.5 | 3 | > 10 | > 10 | 5.7
